Results reported in publication PMC6158189, “A pharmacological probe identifies cystathionine β-synthase as a new negative regulator for ferroptosis” (Cell Death & Disease, 2018).

Assays:
[1] = tested on: HepG2 cells; experiment: cell viability (CellTiter 96 Aqueous One); assay type: cell-based, human; details: 24 h
Method: Fig. 4 CH004 arrests the cell cycle at the S phase. a CH004 reduces the cell viability of HEK293T and HepG2 cells. HEK293T or HepG2 cells were treated with indicated concentrations of CH004 for 24 h before the cell number was analyzed using the CellTiter96® Aqueous One Solution Cell Proliferation Assay (Promega, Materials and Methods). The means at each concentration of one representative experiment are shown as percentages of DMSO (control, 100%). Means ± SDs (n = 3). b Overexpression of hCBS or knock-down of hCBS counteracts the growth inhibition exerted by CH004 in HEK293T cells. Indicated HEK293T stable cell lines were treated with the CH004 or DMSO for 24 h. Then, the cell viability was quantified with the CellTiter 96® Aqueous One Solution Cell Proliferation Assay under the standard protocol (Promega). The means at each concentration are shown as percentages of their respective DMSO controls (100%). Means ± SDs (n = 3). The efficacy for CBS overexpression and knock-down in HEK293T cells was determined by Western blotting using an anti-CBS antibody (3E1, 1:2000; Abnova). c CH004 induces cell death in HEK293T and HepG2 cells. […] The means of percentages of dead cells (DMSO, 100%) from three independent samples are shown in d. Means ± SDs (n = 3). e, f Pharmacological inhibition or genetic knock-down of hCBS in HEK293T cells arrests the cell cycle at S phase. HEK293T cells were incubated with indicated compounds for 12 h, and the DNA content was quantified with propidium iodide to analyze the cell cycle distribution by flow cytometry (e). The cell cycle distributions for HEK293T-shNT and HEK293T-shCBS cells were accordingly analyzed and are shown in f. One representative diagram is shown for each condition. The mean percentages of various cell phases from three independent samples are shown in the respective right panels. Means ± SDs (n = 3). […]
Figure S15. […] Indicated HEK293T stable cell lines were treated with CH004 at a concentration of 10 µM for 24 h, and the cell viability was then measured using the CellTiter96® Aqueous One Solution Cell Proliferation Assay (Promega). […]

[2] = tested on: HepG2 cells; experiment: cell death, FITC Annexin V kit, flow cytometry; assay type: cell-based, human; details: 40 μM, 12 h
Method: Fig. 4 CH004 arrests the cell cycle at the S phase. a CH004 reduces the cell viability of HEK293T and HepG2 cells. HEK293T or HepG2 cells were treated with indicated concentrations of CH004 for 24 h before the cell number was analyzed using the CellTiter96® Aqueous One Solution Cell Proliferation Assay (Promega, Materials and Methods). The means at each concentration of one representative experiment are shown as percentages of DMSO (control, 100%). Means ± SDs (n = 3). b Overexpression of hCBS or knock-down of hCBS counteracts the growth inhibition exerted by CH004 in HEK293T cells. Indicated HEK293T stable cell lines were treated with the CH004 or DMSO for 24 h. Then, the cell viability was quantified with the CellTiter 96® Aqueous One Solution Cell Proliferation Assay under the standard protocol (Promega). […] The efficacy for CBS overexpression and knock-down in HEK293T cells was determined by Western blotting using an anti-CBS antibody (3E1, 1:2000; Abnova). c CH004 induces cell death in HEK293T and HepG2 cells. […] HEK293T cells were incubated with indicated compounds for 12 h, and the DNA content was quantified with propidium iodide to analyze the cell cycle distribution by flow cytometry (e). The cell cycle distributions for HEK293T-shNT and HEK293T-shCBS cells were accordingly analyzed and are shown in f. […]

With `Cn1nc(Cc2ccccc2)nc2c(=O)n(C)c(=O)nc1-2` [CH004, 3-benzyl-1,6-dimethylpyrimido[5,4-e][1,2,4]triazine-5,7(1H,6H)-dione] as the compound, how does the IC50 [1] read?
Its IC50 is about 11 µM.

What about the IC50 ([1]; Homo sapiens, HepG2, 24 h) of the same compound?
Its IC50 is 11.3 ± 1.3 µM.

What about the “increase in cell death” value [2] of the same compound?
The value was ~ 80%.
